In patent US7445791B2, “Synergistic insecticidal composition containing Chloronicotynyle and Organosphosphorus compounds” (priority 2004, dated 2008):
Values after ≈ are worked out from the molar mass of the structure shown. Like-named read-outs stand apart in the source and are kept apart here.

Experiments:
[1] = cited from earlier work
mice = settings: cited from earlier work
[2] = test system: nematodes and spider mites; settings: cited from earlier work
[3] = test system: Brown plant hoppers and Green plant hoppers; format: in vivo; settings: 5 days after treatment
Protocol: In this evaluation, Brown plant hoppers and Green plant hoppers are obtained from laboratory colonies. Paddy leaves are immersed in 1:1 v/v, acetone/water solutions of the test compound, or solution of a combination of the test compounds, for a period of about 4 seconds. Following immersion, leaves are allowed to air-dry for 2-3 hours. Plastic bioassay trays containing multiple open-faced wells (4.0×4.0×2.5 cm) are used. Cut portions of a treated leaf, a moistened cotton dental wick and a single third-instar larva are placed into each well. These wells are covered with an adhesive vented clear plastic sheet which is held under constant fluorescent light at about 30° C. for a predetermined period of time. Larval mortality/morbidity is evaluated at 5 days after treatment. All treatments are replicated 3-4 fold in a randomized complete block design with 15-30 larvae per treatment. Using conventional log-probit analysis, the LC50 of each treatment is determined.
Using the above process, a Chloronicotynyle compound may be evaluated alone and in combination with a second insecticidal compound, Imidacloprid, at dose rates of 0, 15, 18, 21, 24, 27 and 30 ppm and in combination with Acephate 0, 400, 500, 600, 700, 800 ppm in various combination of these strengths.
Synergism can be calculated by using the Colby's method i.e. the expected (or predicted) response of the combination is calculated by taking the product of the observed response for each individual component of the combination when applied alone divided by 100 and subtracting this value from the sum of observed response for each component when applied alone. Synergism of the combination is then determined by comparing the observed response of the combination to the expected (or predicted) response as calculated from the observed response of each individual component alone. If the observed response of the combination is greater than the expected (or predicted) response then the combination is said to be synergistic and falls within the definition of synergistic effect. (Colby, S. R., Weeds, 1967(15), p. 20-22).

[4] = cited from earlier work; for DT 50 (calculated) hydrolysis: 20° C.; for DT50 hydrolysis: 40° C.
[5] = mammals, oral administration, almost entirely in the urine; cited from earlier work
crop plants = settings: cited from earlier work
[6] = 20° C.; cited from earlier work

(E)-N′-[(6-chloro-3-pyridyl)methyl]-N-cyano-N-methylacetamidine [Acetamiprid]
solubility in organic solvents (in words) ([1]; acetone, methanol, ethanol, dichloromethane, chloroform, acetonitrile and tetrahydrofuron): Soluble

O=[N+]([O-])NC1=NCCN1Cc1ccc(Cl)nc1 [Imidacloprid, 1-(6-chloro-3-pyridylmethyl)-N-nitroimidazolidin-2-yldeneamine]
acute oral LD50 (mice): 150 mg/kg | solubility in dichloromethane ([1]; 20° C.): 55 mg/mL (≈ 215 mM) | solubility in hexane ([1]; 20° C.): < 0.1 mg/mL | solubility in isopropanol ([1]; 20° C.): 1.2 mg/mL (≈ 4.69 mM) | solubility in toluene ([1]; 20° C.): 0.68 mg/mL (≈ 2.66 mM) | effect on nematodes and spider mites [2]: no effect | Observed Mortality % ([3]; Imidacloprid 20 ppm alone): 47.30%

CCN(CC)C(=O)C(Cl)=C(C)OP(=O)(OC)OC [Phosphamidon, 2-chloro-2-diethylcarbamoyl-1-methylvinyldimethylphosphate]
DT 50 (calculated) hydrolysis ([4]; pH 5): 60 days | DT 50 (calculated) hydrolysis ([4]; pH 7): 54 days | DT 50 (calculated) hydrolysis ([4]; pH 9): 12 days | hydrolysis in alkali (in words) ([4]; alkali): rapidly hydrolysed | Observed Mortality % ([3]; Phosphamidon 320 ppm alone): 60.0% | Observed Mortality % ([3]; Phosphamidon 370 ppm alone): 65% | Observed Mortality % ([3]; Phosphamidon 400 ppm alone): 72.0% | dose excreted within 24 hours [5]: 85-90%

COP(=O)(NC(C)=O)SC (stereo not shown) [Acephate, O,S-dimethylacetylphosphoramidothioate]
DT50 hydrolysis ([4]; pH 3): 710 h | DT50 hydrolysis ([4]; pH 9): 60 h | solubility in acetone ([1]; 20° C.): 151 mg/mL (≈ 824 mM) | solubility in benzene ([1]; 20° C.): 16 mg/mL (≈ 87.4 mM) | solubility in ethanol ([1]; 20° C.): > 100 mg/mL | solubility in ethyl acetate ([1]; 20° C.): 35 mg/mL (≈ 191 mM) | solubility in hexane ([1]; 20° C.): 0.1 mg/mL (≈ 0.546 mM) | phytotoxicity to crop plants (in words) (crop plants): non-phytotoxic to most crop plants | Observed Mortality % ([3]; Acephate 600 ppm alone): 52.50% | Observed Mortality % ([3]; Acephate 700 ppm alone): 60.00% | Observed Mortality % ([3]; Acephate 800 ppm alone): 70.00% | solubility in water [6]: about 790 g/l
